Test results as given in publication PMC10803553 (Frontiers in Oncology, 2024).
“Also recorded” adds a separate entry of the source. Each block holds one compound with its values, some of them ahead of it.

Key:
EML4-ALK (F1174S) V3a = biological target: T1, EML4-ALK (F1174S) V3a (Homo sapiens, UniProt Q9HC35+Q9UM73, F1174S); conditions: NL20 cells, 0 nM to 1000 nM, pALK-Y1604 readout
T1 sequence (Q9HC35+Q9UM73 with tags, fused parts or gaps Q9UM73:F1174S): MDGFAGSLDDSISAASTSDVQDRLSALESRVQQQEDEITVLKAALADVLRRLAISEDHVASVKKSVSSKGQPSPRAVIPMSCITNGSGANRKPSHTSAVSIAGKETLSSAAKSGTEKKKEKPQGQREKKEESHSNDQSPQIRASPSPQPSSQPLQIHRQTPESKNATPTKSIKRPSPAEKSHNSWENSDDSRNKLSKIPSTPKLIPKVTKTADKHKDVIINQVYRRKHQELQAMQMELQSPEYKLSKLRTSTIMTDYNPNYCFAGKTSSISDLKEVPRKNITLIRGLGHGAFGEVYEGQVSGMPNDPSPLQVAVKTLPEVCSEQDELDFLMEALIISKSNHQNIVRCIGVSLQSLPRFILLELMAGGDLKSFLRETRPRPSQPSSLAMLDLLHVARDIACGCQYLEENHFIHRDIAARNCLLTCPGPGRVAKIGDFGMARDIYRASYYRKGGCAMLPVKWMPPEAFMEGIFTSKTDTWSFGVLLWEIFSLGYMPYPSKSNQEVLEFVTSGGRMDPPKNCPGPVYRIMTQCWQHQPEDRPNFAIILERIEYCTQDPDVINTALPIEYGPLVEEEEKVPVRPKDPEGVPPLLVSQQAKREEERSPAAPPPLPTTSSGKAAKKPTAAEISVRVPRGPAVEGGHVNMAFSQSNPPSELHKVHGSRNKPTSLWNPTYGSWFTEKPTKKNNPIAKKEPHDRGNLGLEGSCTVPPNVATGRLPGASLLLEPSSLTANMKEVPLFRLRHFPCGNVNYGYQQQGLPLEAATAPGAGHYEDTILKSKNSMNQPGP
Experimental: (§1) SK-N-AS cells were transfected with Lipofectamine 3000 (Invitrogen, Carlsbad. CA) following the manufacturer’s instruction. […] After 24-36 hours culture, cells were treated with serial dilutions of the indicated inhibitors for 2 hours.
Cells were washed with ice-cold PBS prior to harvest in lysis buffer [25 mM of Tris-Cl, pH7.5, 150 mM of NaCl, 1% (v/v) Triton X-100, 1 mM of DTT, and protease inhibitor cocktail]. Cell lysates were clarified by centrifugation at 14,000 rpm for 15 minutes at 4°C. Samples were boiled in 1x SDS sample buffer and analyzed by immunoblotting. Enhanced chemiluminescence (ECL) and fluorescence blot images were taken with LI-COR Odyssey FC instrument and Image Studio 5.2 software (Lincoln, NE). […] The intensity of different protein bands was quantified with Image Studio Lite 5.2 software (Lincoln, NE). Ratios were shown either directly or normalized. […] GraphPad Prism 6.0 was used to calculate IC50 values by fitting data to a log (inhibitor concentration) vs. normalized response (variable slope) equation.
We therefore tested the sensitivity of these EML4-ALK mutants to ALK inhibitors. […] Dose-dependent ALK activity responses were followed with anti-pALK-Y1604 as readout.
Dose-dependent ALK activity responses were followed employing anti-pALK-Y1604 as readout.

EML4-ALK F1174S NSCLC = conditions: one NSCLC patient, after resistance to crizotinib; alectinib 6 months, ceritinib 3 months, brigatinib 1 month
EML4-ALK V1 mRNA = test: RT-PCR for EML4-ALK V1 mRNA after ALK inhibition in DFCI032 cells; assay type: cell-based, human; conditions: 30 nM lorlatinib, 24 hours
Experimental: Reverse transcription was performed with the SuperScript IV First-Strand Synthesis System (Invitrogen, Carlsbad. CA) following the manufacturer’s protocol. PCR was performed with DreamTaq Hot Start Green PCR Master Mix (ThermoScientific, Waltham, MA). The PCR primers used for ALK were 5’-[…]-3’ and 5’-[…]-3’; and the primers for Actin were 5’-[…]-3’ and 5’-[…]-3’.
as §1

[1] = test system: wildtype and F1174S mutant EML4-ALK V3a and EML4-ALK V3b; test: Dose-dependent pALK-Y1604 response to crizotinib or lorlatinib in NL20 cells, wildtype and F1174S mutant V3a/b (immunoblot, qualitative); assay type: cell-based, human; conditions: 0 nM to 1000 nM, 2 hours

sensitivity of EML4-ALK (F1174S) V3a to ALK inhibition relative to EML4-ALK V3a (qualitative) (EML4-ALK (F1174S) V3a): more sensitive
Structure (SMILES): Cc1cc(Nc2ncc(Cl)c(Nc3ccccc3S(=O)(=O)C(C)C)n2)c(OC(C)C)cc1C1CCNCC1 [ceritinib]
clinical response to ALK TKI (EML4-ALK F1174S NSCLC): no detectable response

Structure (SMILES): COc1cc(N2CCC(N3CCN(C)CC3)CC2)ccc1Nc1ncc(Cl)c(Nc2ccccc2P(C)(C)=O)n1 [brigatinib]
sensitivity of EML4-ALK (F1174S) V3a to ALK inhibition relative to EML4-ALK V3a (qualitative) (EML4-ALK (F1174S) V3a): strongest effect; also recorded: more sensitive | clinical response to ALK TKI (EML4-ALK F1174S NSCLC): no detectable response

Structure (SMILES): C[C@H]1Oc2cc(cnc2N)-c2c(nn(C)c2C#N)CN(C)C(=O)c2ccc(F)cc21 [lorlatinib]
ALK mRNA levels in response to treatment (EML4-ALK V1 mRNA): decreased ALK mRNA levels | inhibition of ALK-Y1604 phosphorylation (qualitative) [1]: superior inhibition effect
